Results taken from patent US12668600B2 (Kumquat Biosciences Inc., priority 2023, dated 2026).

How the values were obtained:
Assay type in all cases: biochemical
[1] = biological target: T1, KRAS G12V (Homo sapiens, UniProt P01116, G12V); test: HTRF KRAS-SOS1 interaction assay, KRAS G12V; conditions: binned ≤2 μM / >2 μM, read-out: Inhibition of KRAS G12V (IC50)
T1 construct: made in house; host or cells: E. coli, e.g. BL21 (DE3)
Description: (§1) This assay can be also used to assess a selective inhibition or reduction of signaling output of a mutant Ras protein relative to a wildtype, or relative to a different mutant Ras protein. For example, the equilibrium interaction of wildtype KRAS or K-Ras mutant (e.g., wildtype or a mutant thereof) with SOS1 (e.g., hSOS1) can be assessed as a proxy or an indication for the ability of a subject compound to bind and inhibit Ras protein. The HTRF assay detects from (i) a fluorescence resonance energy transfer (FRET) donor (e.g., antiGST-Europium) that is bound to GST-tagged K-Ras mutant to (ii) a FRET acceptor (e.g., anti-6His-XL665) bound to a His-tagged hSOS1.
(§2) The assay buffer can contain ˜5 mM HEPES pH 7.4, ˜150 mM NaCl, ˜1 mM DTT, 0.05% BSA and 0.0025% (v/v) Igepal. A Ras working solution is prepared in an assay buffer containing typically a suitable amount of the protein construct (e.g., GST-tagged K-Ras mutant) and the FRET donor (e.g., antiGST-Eu (K) from Cisbio, France). A SOS1 working solution is prepared in an assay buffer containing suitable amount of the protein construct (e.g., His-hSOS1) and the FRET acceptor (e.g., anti-6His-XL665 from Cisbio, France). A suitable amount of the protein construct will depend on the range of activity or range of IC50 values being detected or under investigation. For detecting an IC50 within a range of 500 nM, the protein constructs of the same range of molarity can be utilized.
(§3) A fixed volume of DMSO with or without test compound is transferred into a 384-well plate. Ras working solution is added to all wells of the test plate. SOS1 working solution is added to all wells except for those that are subsequently filled with inhibitor control solution. Upon incubation for about 10 minutes or longer, the fluorescence is measured with a M1000Pro plate reader (Tecan) using HTRF detection (excitation 337 nm, emission 1:620 nm, emission 2:665 nm). Compounds are tested in duplicate at different concentrations (for example, 10 μM, 2.5 μM, 0.63 μM, 0.16 μM, 0.04 μM, 0.01 μM test compound). The ratiometric data (i.e., emission 2 divided by emission 1) is used to calculate IC50 values against Ras using GraphPad Prism (GraphPad software). Signaling output measured in terms of IC50 values can be obtained and a ratio of IC50 against one mutant relative to another mutant can be calculated.

[2] = biological target: T2, KRAS WT (Homo sapiens, UniProt P01116); test: HTRF KRAS-SOS1 interaction assay, wildtype KRAS; conditions: binned ≤2 μM / >2 μM, read-out: Inhibition of KRAS WT (IC50)
T2 construct: made in house; host or cells: E. coli, e.g. BL21 (DE3)
Description: as §1, §2, §3

[3] = biological target: T3, KRAS G12D (Homo sapiens, UniProt P01116, G12D); test: HTRF KRAS-SOS1 interaction assay, KRAS G12D; conditions: binned ≤2 μM / >2 μM, read-out: Inhibition of KRAS G12D (IC50)
T3 construct: made in house; host or cells: E. coli, e.g. BL21 (DE3)
Description: as §1, §2, §3

[4] = biological target: T4, KRAS G12S (Homo sapiens, UniProt P01116, G12S); test: HTRF KRAS-SOS1 interaction assay, KRAS G12S; conditions: binned ≤2 μM / >2 μM, read-out: Inhibition of KRAS G12S (IC50)
T4 construct: made in house; host or cells: E. coli, e.g. BL21 (DE3)
Description: as §1, §2, §3

T2 sequence (P01116 1-188 isoform P01116-2): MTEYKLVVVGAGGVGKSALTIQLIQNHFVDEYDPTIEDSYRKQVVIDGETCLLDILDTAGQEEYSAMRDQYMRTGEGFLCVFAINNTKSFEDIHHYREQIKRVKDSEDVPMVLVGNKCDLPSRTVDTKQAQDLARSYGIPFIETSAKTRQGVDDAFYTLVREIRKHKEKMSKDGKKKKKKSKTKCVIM
T1 sequence (P01116 1-188 isoform P01116-2 G12V): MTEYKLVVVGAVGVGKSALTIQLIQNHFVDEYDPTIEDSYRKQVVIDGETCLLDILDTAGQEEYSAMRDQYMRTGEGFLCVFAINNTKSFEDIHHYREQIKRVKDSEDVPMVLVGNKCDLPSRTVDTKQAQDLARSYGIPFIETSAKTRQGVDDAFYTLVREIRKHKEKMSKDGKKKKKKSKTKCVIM
T4 sequence (P01116 1-188 isoform P01116-2 G12S): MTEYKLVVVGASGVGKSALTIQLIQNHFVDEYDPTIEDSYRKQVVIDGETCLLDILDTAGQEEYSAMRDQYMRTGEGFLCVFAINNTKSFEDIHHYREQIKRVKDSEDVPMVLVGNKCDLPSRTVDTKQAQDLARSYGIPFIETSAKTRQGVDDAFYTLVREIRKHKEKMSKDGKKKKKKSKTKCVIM
T3 sequence (P01116 1-188 isoform P01116-2 G12D): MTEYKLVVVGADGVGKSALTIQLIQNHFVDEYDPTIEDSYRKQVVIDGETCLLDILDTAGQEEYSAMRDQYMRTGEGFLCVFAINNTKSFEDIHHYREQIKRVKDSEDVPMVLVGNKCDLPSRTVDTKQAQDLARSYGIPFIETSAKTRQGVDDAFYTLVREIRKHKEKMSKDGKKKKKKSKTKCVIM

Row | Compound | IC50 [1] [µM] | IC50 [2] [µM] | IC50 [3] [µM] | IC50 [4] [µM]
1 | N#Cc1c(N)sc2c(F)ccc(-c3c(C(F)(F)F)c4c5c(nc(OC[C@@]67CCCN6C[C@H](F)C7)nc5c3F)N([C@H](CC3CCOC3)c3cccnc3N)CCO4)c12 (single isomer, unassigned) [Compound 717] | > 2 | > 2 | > 2 | 
2 | CCO/N=C(\C)CCC[C@H](c1cccnc1N)N1CCOc2c(C(F)(F)F)c(-c3ccc(F)c4sc(N)c(C#N)c34)c(F)c3nc(OC[C@@]45CCCN4C[C@H](F)C5)nc1c23 (single isomer, unassigned) [Compound 859] | > 2 | > 2 | > 2 | 
3 | C=Cc1c(-c2ccc(F)c3sc(N)c(C#N)c23)c(F)c2nc(OC[C@@]34CCCN3C[C@H](F)C4)nc3c2c1OCCN3[C@H](C)c1cccnc1N (single isomer, unassigned) [Compound 603] | ≤ 2 | ≤ 2 |  | ≤ 2
4 | N#Cc1c(N)sc2c(F)ccc(-c3c(Cl)c4c5c(nc(OC[C@@]67CCCN6C[C@H](F)C7)nc5c3F)N(C(/C=C\C(F)(F)F)c3cccnc3N)CCO4)c12 (single isomer, unassigned) [Compound 632] | ≤ 2 | ≤ 2 |  | ≤ 2
5 | N#Cc1c(N)sc2c(F)ccc(-c3c(Cl)c4c5c(nc(OC[C@@]67CCCN6C[C@H](F)C7)nc5c3F)N(C(c3cccnc3N)C(F)F)CCO4)c12 (single isomer, unassigned) [Compound 618] | ≤ 2 | ≤ 2 |  | ≤ 2
6 | N#Cc1c(N)sc2c(F)ccc(-c3c(C(F)(F)F)c4c5c(nc(OC[C@@]67CCCN6C[C@H](F)C7)nc5c3F)N([C@H](CCC3COCCO3)c3cccnc3N)CCO4)c12 (single isomer, unassigned) [Compound 624] | ≤ 2 | ≤ 2 |  | ≤ 2
7 | C[C@H](c1cccnc1N)N1CCOc2c(C(F)(F)F)c(-c3ccc(F)c4sc(N)c(C#N)c34)c(F)c3nc(OC[C@@]45CCCN4C[C@H](F)C5)nc1c23 (single isomer, unassigned) [Compound 757] | ≤ 2 | ≤ 2 | ≤ 2 | 
8 | N#Cc1c(N)sc2c(F)ccc(-c3c(C(F)(F)F)c4c5c(nc(OC[C@@]67CCCN6C[C@H](F)C7)nc5c3F)N([C@H](CC3CCOC3)c3cccnc3N)CCO4)c12 (single isomer, unassigned) [Compound 772] | ≤ 2 | ≤ 2 | ≤ 2 | 
9 | C=CC[C@H](c1cccnc1N)N1CCOc2c(C(F)(F)F)c(-c3ccc(F)c4sc(N)c(C#N)c34)c(F)c3nc(OC[C@@]45CCCN4C[C@H](F)C5)nc1c23 (single isomer, unassigned) [Compound 734] | > 2 | > 2 | ≤ 2 | 
10 | CCC(c1cccnc1N)N1CCOc2c(Cl)c(-c3ccc(F)c4sc(N)c(C#N)c34)c(F)c3nc(OC[C@@]45CCCN4C[C@H](F)C5)nc1c23 (mixture of isomers) [Compound 844, 2-amino-4-(4-(1-(2-aminopyridin-3-yl)propyl)-8-chloro-10-fluoro-2-(((2R,7aS)-2-fluorotetrahydro-1H-pyrrolizin-7a(5H)-yl)methoxy)-5,6-dihydro-4H-[1,4]oxazepino[5,6,7-de]quinazolin-9-yl)-7-fluorobenzo[b]thiophene-3-carbonitrile] |  |  | ≤ 2 | 
11 | C[C@H](c1cccnc1N)N1CCOc2c(C(F)(F)F)c(-c3ccc(F)c4sc(N)c(C#N)c34)c(F)c3nc(OC[C@@]45CCCN4C[C@H](F)C5)nc1c23 (single isomer, unassigned) [Compound 768] |  |  |  | ≤ 2
12 | C[C@H](c1cccnc1N)N1CCOc2c(C(F)(F)F)c(-c3cccc4sc(N)c(C#N)c34)c(F)c3nc(OC[C@@]45CCCN4C[C@H](F)C5)nc1c23 (single isomer, unassigned) [Compound 791] |  |  | ≤ 2 | 
13 | CCO/N=C(\C)CCC[C@H](c1cccnc1N)N1CCOc2c(C(F)(F)F)c(-c3ccc(F)c4sc(N)c(C#N)c34)c(F)c3nc(OC[C@@]45CCCN4C[C@H](F)C5)nc1c23 (single isomer, unassigned) [Compound 720] | ≤ 2 | ≤ 2 | ≤ 2 | 

The remaining lines, values ahead:

Row | IC50 [1] [µM] | IC50 [2] [µM] | IC50 [3] [µM] | IC50 [4] [µM] | Compound
14 | ≤ 2 |  | ≤ 2 | ≤ 2 | N#Cc1c(N)sc2c(F)ccc(-c3c(C(F)(F)F)c4c5c(nc(OC[C@@]67CCCN6[C@H](COc6cnc(C(F)(F)F)cn6)CC7)nc5c3F)N([C@@H](c3cccnc3N)C(F)F)CCO4)c12 (single isomer, unassigned) [Compound 882]
15 | ≤ 2 | ≤ 2 |  | ≤ 2 | CCC(c1cccnc1N)N1CCOc2c(Cl)c(-c3ccc(F)c4sc(N)c(C#N)c34)c(F)c3nc(OC[C@@]45CCCN4C[C@H](F)C5)nc1c23 (mixture of isomers) [Compound 643, 2-amino-4-(4-(1-(2-aminopyridin-3-yl)propyl)-8-chloro-10-fluoro-2-(((2R,7aS)-2-fluorotetrahydro-1H-pyrrolizin-7a(5H)-yl)methoxy)-5,6-dihydro-4H-[1,4]oxazepino[5,6,7-de]quinazolin-9-yl)-7-fluorobenzo[b]thiophene-3-carbonitrile]
16 | ≤ 2 | ≤ 2 | ≤ 2 |  | N#Cc1c(N)sc2c(F)ccc(-c3c(C(F)(F)F)c4c5c(nc(OC[C@@]67CCCN6C[C@H](F)C7)nc5c3F)N([C@H](CC3CCOC3)c3cccnc3N)CCO4)c12 (single isomer, unassigned) [Compound 911]
17 |  | ≤ 2 |  |  | N#Cc1c(N)sc2c(F)ccc(-c3c(C(F)(F)F)c4c5c(nc(OC[C@@]67CCCN6[C@H](COc6cnc(C(F)(F)F)cn6)CC7)nc5c3F)N([C@@H](c3cccnc3N)C(F)F)CCO4)c12 (single isomer, unassigned) [Compound 887]
18 | ≤ 2 | ≤ 2 |  | ≤ 2 | N#Cc1c(N)sc2c(F)ccc(-c3c(Cl)c4c5c(nc(OC[C@@]67CCCN6C[C@H](F)C7)nc5c3F)N(C(C=C(F)F)c3cccnc3N)CCO4)c12 (single isomer, unassigned) [Compound 655]
19 | ≤ 2 | ≤ 2 |  | ≤ 2 | CP(C)(=O)CC[C@H](c1cccnc1N)N1CCOc2c(C(F)(F)F)c(-c3ccc(F)c4sc(N)c(C#N)c34)c(F)c3nc(OC[C@@]45CCCN4C[C@H](F)C5)nc1c23 (single isomer, unassigned) [Compound 671]
20 |  | > 2 | > 2 | > 2 | Cc1cnc(N)c([C@@H](C)N2CCOc3c(C(F)(F)F)c(-c4ccc(F)c5sc(N)c(C#N)c45)c(F)c4nc(OC[C@@]56CCCN5C[C@H](F)C6)nc2c34)c1 (single isomer, unassigned) [Compound 861]
21 |  | ≤ 2 | ≤ 2 |  | N#Cc1c(N)sc2c(F)ccc(-c3c(C(F)(F)F)c4c5c(nc(OC[C@@]67CCCN6C[C@H](F)C7)nc5c3F)N([C@H](CCC3CCC3)c3cccnc3N)CCO4)c12 (single isomer, unassigned) [Compound 745]
22 |  | > 2 | > 2 | > 2 | C[C@H](c1cccnc1N)N1CCOc2c(C(F)(F)F)c(-c3cc(F)c(F)c4sc(N)c(C#N)c34)c(F)c3nc(OC[C@@]45CCCN4C[C@H](F)C5)nc1c23 (single isomer, unassigned) [Compound 863]
23 |  |  | ≤ 2 |  | Cc1cnc(N)c([C@@H](C)N2CCOc3c(C(F)(F)F)c(-c4ccc(F)c5sc(N)c(C#N)c45)c(F)c4nc(OC[C@@]56CCCN5C[C@H](F)C6)nc2c34)n1 (single isomer, unassigned) [Compound 767]
